The record followed here is patent US10738030B2, “Modulators of cystic fibrosis transmembrane conductance regulator” (Vertex Pharmaceuticals Incorporated, priority 2016, dated 2020).

The target of this experiment is T1, F508del (Homo sapiens, UniProt P13569, DEL508-508).
T1 construct: expressed in transfected cells
As to the kind of experiment: Membrane potential optical assay (FRET voltage-sensor dyes), identification of correction compounds. Format: cell-based. The note with it: NIH3T3 cells stably expressing F508del, procedures described above; for Emax: maximum efficacy, read-out: Max Efficacy; for EC50: modulation of CFTR activity. Here is the method: (§1) NIH3T3 mouse fibroblasts stably expressing F508del are used for optical measurements of membrane potential. The cells are maintained at 37° C. in 5% CO2 and 90% humidity in Dulbecco's modified Eagle's medium supplemented with 2 mM glutamine, 10% fetal bovine serum, 1×NEAA, β-ME, 1× pen/strep, and 25 mM HEPES in 175 cm^2 culture flasks. For all optical assays, the cells were seeded at 12,000 cells/well in 384-well matrigel-coated plates and cultured for 18-24 hrs at 37° C. for the potentiator assay. For the correction assays, the cells are cultured at 37° C. with and without compounds for 18-24 hours.
Membrane potential optical methods for assaying F508del modulation properties of compounds.
The optical membrane potential assay utilized voltage-sensitive FRET sensors described by Gonzalez and Tsien (See Gonzalez, J. E. and R. Y. Tsien (1995) “Voltage sensing by fluorescence resonance energy transfer in single cells” Biophys J 69(4): 1272-80, and Gonzalez, J. E. and R. Y. Tsien (1997) “Improved indicators of cell membrane potential that use fluorescence resonance energy transfer” Chem Biol 4(4): 269-77) in combination with instrumentation for measuring fluorescence changes such as the Voltage/Ion Probe Reader (VIPR) (See, Gonzalez, J. E., K. Oades, et al. (1999) “Cell-based assays and instrumentation for screening ion-channel targets” Drug Discov Today 4(9): 431-439).
These voltage sensitive assays are based on the change in fluorescence resonant energy transfer (FRET) between the membrane-soluble, voltage-sensitive dye, DiSBAC2(3), and a fluorescent phospholipid, CC2-DMPE, which is attached to the outer leaflet of the plasma membrane and acts as a FRET donor. Changes in membrane potential (Vm) cause the negatively charged DiSBAC2(3) to redistribute across the plasma membrane and the amount of energy transfer from CC2-DMPE changes accordingly. The changes in fluorescence emission were monitored using VIPR™ II, which is an integrated liquid handler and fluorescent detector designed to conduct cell-based screens in 96- or 384-well microtiter plates.
To identify small molecules that correct the trafficking defect associated with F508del; a single-addition HTS assay format was developed. The cells were incubated in serum-free medium for 16 hrs at 37° C. in the presence or absence (negative control) of test compound. As a positive control, cells plated in 384-well plates were incubated for 16 hrs at 27° C. to “temperature-correct” F508del. The cells were subsequently rinsed 3× with Krebs Ringers solution and loaded with the voltage-sensitive dyes. To activate F508del, 10 μM forskolin and the CFTR potentiator, genistein (20 μM), were added along with Cl^−-free medium to each well. The addition of Cl^−-free medium promoted Cl^− efflux in response to F508del activation and the resulting membrane depolarization was optically monitored using the FRET-based voltage-sensor dyes.
• Bath Solution #1: (in mM) NaCl 160, KCl 4.5, CaCl2 2, MgCl2 1, HEPES 10, pH 7.4 with NaOH. • Chloride-free bath solution: Chloride salts in Bath Solution #1 (above) are substituted with gluconate salts. • CC2-DMPE: Prepared as a 10 mM stock solution in DMSO and stored at −20° C. • DiSBAC2(3): Prepared as a 10 mM stock in DMSO and stored at −20° C. Cell Culture
as §1, with “seeded at 30,000/well in 384-well” for “seeded at 12,000 cells/well in 384-well”, “cultured for 2 hrs at” for “cultured for 18-24 hrs at”, “37° C. before culturing at 27° C. for 24 hrs for the” for “37° C. for the”, “cultured at 27° C. or 37° C.” for “cultured at 37° C.”, “compounds for 16-24 hours.” for “compounds for 18-24 hours.”

T1 sequence (P13569 with tags, fused parts or gaps DEL508-508): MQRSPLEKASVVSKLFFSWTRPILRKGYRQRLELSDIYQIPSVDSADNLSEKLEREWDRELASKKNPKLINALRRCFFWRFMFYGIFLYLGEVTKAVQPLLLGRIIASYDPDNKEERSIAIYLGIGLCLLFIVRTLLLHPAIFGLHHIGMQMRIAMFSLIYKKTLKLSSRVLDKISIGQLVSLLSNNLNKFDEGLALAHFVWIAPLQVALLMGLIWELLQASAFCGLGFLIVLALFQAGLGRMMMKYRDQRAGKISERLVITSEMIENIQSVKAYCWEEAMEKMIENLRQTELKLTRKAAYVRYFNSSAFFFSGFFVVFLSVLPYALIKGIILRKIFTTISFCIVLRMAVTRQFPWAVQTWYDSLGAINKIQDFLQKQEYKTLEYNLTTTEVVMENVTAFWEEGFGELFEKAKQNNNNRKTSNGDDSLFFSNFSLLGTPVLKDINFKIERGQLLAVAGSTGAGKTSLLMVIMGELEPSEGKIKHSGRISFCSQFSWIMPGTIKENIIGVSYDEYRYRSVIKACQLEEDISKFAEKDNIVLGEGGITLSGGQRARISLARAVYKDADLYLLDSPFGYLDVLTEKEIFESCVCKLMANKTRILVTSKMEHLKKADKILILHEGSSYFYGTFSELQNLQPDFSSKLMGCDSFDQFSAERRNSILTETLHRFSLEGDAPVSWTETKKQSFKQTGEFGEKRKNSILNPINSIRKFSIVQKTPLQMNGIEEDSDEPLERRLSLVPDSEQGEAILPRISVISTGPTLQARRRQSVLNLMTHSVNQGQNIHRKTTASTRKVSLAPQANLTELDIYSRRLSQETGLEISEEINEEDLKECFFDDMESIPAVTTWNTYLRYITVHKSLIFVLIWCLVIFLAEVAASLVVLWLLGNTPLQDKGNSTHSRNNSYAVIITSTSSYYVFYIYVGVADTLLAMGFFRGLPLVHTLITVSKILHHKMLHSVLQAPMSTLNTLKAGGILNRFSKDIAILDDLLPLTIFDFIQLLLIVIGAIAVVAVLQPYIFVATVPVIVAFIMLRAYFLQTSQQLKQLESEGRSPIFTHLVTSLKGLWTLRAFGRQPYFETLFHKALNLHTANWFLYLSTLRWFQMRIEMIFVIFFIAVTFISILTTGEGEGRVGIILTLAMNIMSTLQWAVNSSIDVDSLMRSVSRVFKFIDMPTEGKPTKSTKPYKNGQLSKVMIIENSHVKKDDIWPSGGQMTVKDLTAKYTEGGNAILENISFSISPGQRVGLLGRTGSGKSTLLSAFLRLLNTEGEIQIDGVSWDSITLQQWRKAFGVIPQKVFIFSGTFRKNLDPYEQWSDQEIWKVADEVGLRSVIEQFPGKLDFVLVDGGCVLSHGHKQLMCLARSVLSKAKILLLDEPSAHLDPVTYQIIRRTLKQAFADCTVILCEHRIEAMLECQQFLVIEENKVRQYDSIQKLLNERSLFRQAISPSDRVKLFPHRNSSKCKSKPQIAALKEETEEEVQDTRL

`COCCCOc1nc(-c2cc(F)cc(OCC(C)C)c2)ccc1C(=O)NS(=O)(=O)c1cccc(N)n1` [Compound 21, N-[(6-amino-2-pyridyl)sulfonyl]-6-(3-fluoro-5-isobutoxy-phenyl)-2-(3-methoxypropoxy)pyridine-3-carboxamide]: the Emax lay in the range of 30 to 80% and the EC50 (in general, the concentration giving half of the maximal effect) is less than 3 µM.
For `COC(C)(C)CCOc1nc(-c2cc(F)cc(OCC(C)C)c2)ccc1C(=O)NS(=O)(=O)c1cccc(N)n1` [Compound 22, N-[(6-amino-2-pyridyl)sulfonyl]-6-(3-fluoro-5-isobutoxy-phenyl)-2-(3-methoxy-3-methyl-butoxy)pyridine-3-carboxamide], in that order: 30 to 80% and less than 3 µM.
As for `COCC(C)Oc1nc(-c2cc(F)cc(OCC(C)C)c2)ccc1C(=O)NS(=O)(=O)c1cccc(N)n1` (stereo not shown) [Compound 23, N-[(6-amino-2-pyridyl)sulfonyl]-6-(3-fluoro-5-isobutoxy-phenyl)-2-(2-methoxy-1-methyl-ethoxy)pyridine-3-carboxamide], the Emax lay within 30 to 80% and the EC50 was 3 to 10 µM.
On to `CC(C)COc1cc(F)cc(-c2ccc(C(=O)NS(=O)(=O)c3cccc(N)n3)c(OC(C)CC(C)C)n2)c1` (stereo not shown) [Compound 24, N-[(6-amino-2-pyridyl)sulfonyl]-2-(1,3-dimethylbutoxy)-6-(3-fluoro-5-isobutoxy-phenyl)pyridine-3-carboxamide], for which the Emax is more than 80% and the EC50 is less than 3 µM.
On the same counts, the results for `CC(C)COc1cc(F)cc(-c2ccc(C(=O)NS(=O)(=O)c3cccc(N)n3)c(OC(C)C(C)(C)C)n2)c1` (stereo not shown) [Compound 25, N-[(6-amino-2-pyridyl)sulfonyl]-6-(3-fluoro-5-isobutoxy-phenyl)-2-(1,2,2-trimethylpropoxy)pyridine-3-carboxamide] are 30 to 80% and less than 3 µM.
On the same counts, the results for `CC(C)COc1cc(F)cc(-c2ccc(C(=O)NS(=O)(=O)c3cccc(N)n3)c(OC(C(C)C)C(C)C)n2)c1` [Compound 26, N-[(6-amino-2-pyridyl)sulfonyl]-6-(3-fluoro-5-isobutoxy-phenyl)-2-(1-isopropyl-2-methyl-propoxy)pyridine-3-carboxamide] are 30 to 80% and less than 3 µM.
For `CCCOc1nc(-c2cc(F)cc(OCC(C)C)c2)ccc1C(=O)NS(=O)(=O)c1cccc(N)n1` [Compound 27, N-[(6-amino-2-pyridyl)sulfonyl]-6-(3-fluoro-5-isobutoxy-phenyl)-2-propoxy-pyridine-3-carboxamide], in that order: more than 80% and less than 3 µM.
On to `C/C=C/COc1nc(-c2cc(F)cc(OCC(C)C)c2)ccc1C(=O)NS(=O)(=O)c1cccc(N)n1` [Compound 28, N-[(6-amino-2-pyridyl)sulfonyl]-2-[(E)-but-2-enoxy]-6-(3-fluoro-5-isobutoxy-phenyl)pyridine-3-carboxamide], for which the Emax lay within 30 to 80% and the EC50 is less than 3 µM.
For `CC[C@H](C)Oc1nc(-c2cc(F)cc(OCC(C)C)c2)ccc1C(=O)NS(=O)(=O)c1cccc(N)n1` [Compound 29, N-[(6-amino-2-pyridyl)sulfonyl]-6-(3-fluoro-5-isobutoxy-phenyl)-2-[(1S)-1-methylpropoxy]pyridine-3-carboxamide], the Emax lay in the range of 30 to 80% and the EC50 is less than 3 µM.
For `CCOc1nc(-c2cc(F)cc(OCC(C)C)c2)ccc1C(=O)NS(=O)(=O)c1cccc(N)n1` [Compound 30, N-[(6-amino-2-pyridyl)sulfonyl]-2-ethoxy-6-(3-fluoro-5-isobutoxy-phenyl)pyridine-3-carboxamide], in that order: 30 to 80% and less than 3 µM.
For `CC(C)COc1cc(F)cc(-c2ccc(C(=O)NS(=O)(=O)c3cccc(N)n3)c(N(C)C(C)C)n2)c1` [Compound 31, N-[(6-amino-2-pyridyl)sulfonyl]-6-(3-fluoro-5-isobutoxy-phenyl)-2-[isopropyl(methyl)amino]pyridine-3-carboxamide], in that order: more than 80% and less than 3 µM.
On the same counts, the results for `CC(C)COc1cc(F)cc(-c2ccc(C(=O)NS(=O)(=O)c3cccc(N)n3)c(OCC(C)(C)C)n2)c1` [Compound 32, N-[(6-amino-2-pyridyl)sulfonyl]-2-(2,2-dimethylpropoxy)-6-(3-fluoro-5-isobutoxy-phenyl)pyridine-3-carboxamide] are more than 80% and less than 3 µM.
With `CC(C)COc1cc(F)cc(-c2ccc(C(=O)NS(=O)(=O)c3cccc(N)n3)c(OC(C(F)(F)F)C(F)(F)F)n2)c1` [Compound 33, N-[(6-amino-2-pyridyl)sulfonyl]-6-(3-fluoro-5-isobutoxy-phenyl)-2-[2,2,2-trifluoro-1-(trifluoromethyl)ethoxy]pyridine-3-carboxamide], the Emax lay in the range of 30 to 80% and the EC50 was less than 3 µM.
On the same counts, the results for `CCC(Oc1nc(-c2cc(F)cc(OCC(C)C)c2)ccc1C(=O)NS(=O)(=O)c1cccc(N)n1)C(C)(C)C` (stereo not shown) [Compound 34] are more than 80% and less than 3 µM.
For `CC#CCCOc1nc(-c2cc(F)cc(OCC(C)C)c2)ccc1C(=O)NS(=O)(=O)c1cccc(N)n1` [Compound 35, N-[(6-amino-2-pyridyl)sulfonyl]-6-(3-fluoro-5-isobutoxy-phenyl)-2-pent-3-ynoxy-pyridine-3-carboxamide], in that order: 30 to 80% and less than 3 µM.
For the molecule `CC(C)COc1cc(F)cc(-c2ccc(C(=O)NS(=O)(=O)c3cccc(N)n3)c(OC(C)CC(C)(C)C)n2)c1` (stereo not shown) [Compound 36, N-[(6-amino-2-pyridyl)sulfonyl]-6-(3-fluoro-5-isobutoxy-phenyl)-2-(1,3,3-trimethylbutoxy)pyridine-3-carboxamide], the Emax lay in the range of 30 to 80% and the EC50 was less than 3 µM.
For `CC(C)=C(C)c1nc(-c2cc(F)cc(OCC(C)C)c2)ccc1C(=O)NS(=O)(=O)c1cccc(N)n1` [Compound 37, N-[(6-amino-2-pyridyl)sulfonyl]-2-(1,2-dimethylprop-1-enyl)-6-(3-fluoro-5-isobutoxy-phenyl)pyridine-3-carboxamide], in that order: 30 to 80% and less than 3 µM.
On the same counts, the results for `CC(C)COc1cc(F)cc(-c2ccc(C(=O)NS(=O)(=O)c3cccc(N)n3)c(OCC(F)F)n2)c1` [Compound 38, N-[(6-amino-2-pyridyl)sulfonyl]-2-(2,2-difluoroethoxy)-6-(3-fluoro-5-isobutoxy-phenyl)pyridine-3-carboxamide] are 30 to 80% and 3 to 10 µM.
On the same counts, the results for `CCCNc1cccc(S(=O)(=O)NC(=O)c2ccc(-c3cc(F)cc(OCC(C)C)c3)nc2NCCC)n1` [Compound 39, 6-(3-fluoro-5-isobutoxy-phenyl)-2-(propylamino)-N-[[6-(propylamino)-2-pyridyl]sulfonyl]pyridine-3-carboxamide] are 30 to 80% and less than 3 µM.
On to `CCC(Oc1nc(-c2cc(F)cc(OCC(C)C)c2)ccc1C(=O)NS(=O)(=O)c1cccc(N)n1)C(C)C` (stereo not shown) [Compound 40, N-[(6-amino-2-pyridyl)sulfonyl]-2-(1-ethyl-2-methyl-propoxy)-6-(3-fluoro-5-isobutoxy-phenyl)pyridine-3-carboxamide], for which the Emax fell in the range of 30 to 80% and the EC50 was less than 3 µM.
